The text below walks through data of article PMC10874388, “Cyclic peptides discriminate BCL-2 and its clinical mutants from BCL-XL by engaging a single-residue discrepancy” (Nature Communications, 2024).

Common to all, as to type: cell-based
For one assay, the system named is RS4:11 cells. Kind of assay: Cell viability assay (CellTiter-Glo), RS4:11. To be noted: RS4:11, single wells. As to the method: (§1) The cell lines Jurkat (TIB-152), El4 (TIB-39), Daudi (ccl-213), RS4:11 (crl-1873), A549 (ccl-185), HepG2 (hb-8065) and PANC-1 (crl-1469) were purchased from ATCC (American Type Culture Collection), and MGC-803 (C6582) was purchased from Beyotime (https://www.beyotime.com/product/C6582.htm). […] Daudi and RS4:11 cells were cultured in RPMI-1640 medium (HyClone, SH30809.01) and 10% FBS (Gibco, 10099-141), whereas HepG2, MGC-803 and PANC-1 cells were cultured in MDEM (HyClone, SH30243.01). Cells were maintained at 37 °C under a humidified, 5% (v/v) CO2-containing atmosphere.
(§2) Cell viability was measured using CellTiter-Glo® 2.0 Reagent (Promega, G9242). […] After different inhibitors were added into serum-free medium and cultured for 4 h (RS4:11 for 6 h), FBS were supplemented to 10% and then incubated totally for 24 h or 48 h. Finally, the IC50 values were calculated based on measurements using a microplate reader (Thermo, Varioskan LUX). Statistical analysis was performed using software GraphPad Prism 7.0.

For assay [1], the system named is Jurkat cells. Briefly: Mitochondrial membrane potential (JC-1), flow cytometry and fluorescence microscopy. To be noted: for Q1(%) / Q1(%)/Q3(%) / Q3(%): Figure 6d, 4h, replicate values; for ΔΨm (ratio of red over green fluorescence, Q1/Q3): 4 h treatment, JC-1, flow cytometry, n = 3. As to the method: For the mitochondrial membrane potential (ΔΨm) analysis, the mitochondrial membrane potential assay kit with JC-1 dye (Beyotime, C2006) was used according to the manufacturer’s protocol. […] The value of ΔΨm was expressed as the ratio of red fluorescence intensity over green fluorescence intensity. After treated with JC-1, fluorescence intensity of Jurkat cells was tested by flow cytometry (BD FACSAria Fusion) and fluorescence microscopy (NIKON Ti-E), respectively. All experiments were performed in triplicate. Statistical analysis was performed using software GraphPad Prism 7.0.

In assay [2] the test system is Jurkat cells. Briefly: Apoptosis assay, Annexin V-FITC/PI staining and flow cytometry. As to the method: Jurkat cells were seeded to 6-well plates at a density of 4 ×10^5 cells per well. Cells were incubated in the presence of DMSO, venetoclax at 2.5 μM, cp1-TAT at 30 μM, cp2-TAT at 30 μM, or cp3-TAT at 20 μM in serum-free RPMI medium for 4 h. After being incubated totally for 24 h, cells were washed once with PBS and stained with 100 μL binding buffer containing 5 μL Annexin V-FITC and 10 μL PI for 15 min, followed by addition of 400 μL binding buffer to detect cell apoptosis with FCM (BD FACSAria Fusion). Statistical analysis was performed using software FlowJo V10 and GraphPad Prism 7.0.

A further assay concerns PANC-1 cells. Kind of assay: Cell viability assay (CellTiter-Glo), PANC-1. To be noted: PNAC-1, TAT control. As for the experimental part: as §1, §2
(§3) Supplementary Figure 10 Functional mechanism of CPs. a. IC50 values of venetoclax against A549, MGC-803 and PANC-1 cells, measured after 48 h treatment by a CellTiter-Glo assay and calculated using Prism 7.0 by a nonlinear-fit method. Data are presented as mean ± s.d.; n= 6 biological replicates. b. […]
(§4) Glo assay. Each data point represents the mean ± s.d. for 6 biological replicates.
(§5) Supplementary Figure 11 IC50 values of different inhibitors against different cell lines. a-d. Viability of A549 (a), HepG2 (b), MGC-803 (c) and PANC-1 (d) cells treated with various concentrations of ABT-199 (venetoclax), and measured after 48 h by a CellTiter-Glo assay. e, f. Viability of Jurkat cells (e) and Daudi cells (f) treated with […]
(§6) after 48 h by a CellTiter-Glo assay. Each data point represents the mean ± s.d. for 6 biological replicates.
(§7) (1 picture or pasted object on this page, not shown here)

The test system of assay [3] is A549 cells overexpressing BCL-2 G101V. Briefly: Cell viability assay, A549 stably overexpressing BCL-2 G101V. To be noted: BCL2/G101V A549, TAT control. As to the method:
as §2
(§8) Lentivirus packaging vectors pMDLg/pRRE, pRSV-Rev, and pVSV-G were obtained from Prof. Han Jiahuai’s lab (Xiamen University). Lentiviruses were produced using 3rd-generation lentivirus packaging plasmids transiently transfected into HEK293T cells with the constructs of interest using 0.25 M CaCl2. Media was changed after 16 h, and supernatants containing infectious virus particles were harvested 24 h later. A second viral harvest was made following a further 24 h incubation with fresh media. Virus containing supernatant was filtered through a […], and stored at 4 °C or −80 °C until being used. Typically, A549 cells were seeded into 10 cm cell culture dishes at 4 ~ 8 × 10^5 cells/cm^2. An equivalent volume of virus containing culture medium was added along with polybrene (Sigma) to a final concentration of 10 µg/mL. Cells were incubated at 37 °C for 20 h, before they were washed and resuspended in fresh culture media. The expression level of BCL-2 was measured by qPCR and western blot methods.

The subject of assay [4] is A549 cells overexpressing BCL-2 WT. Kind of assay: Cell viability assay, A549 stably overexpressing BCL-2 WT. To be noted: BCL2-WT A549, TAT control. As for the experimental part: as §2, §8
Another assay has as its system MGC-803 cells. Kind of assay: Cell viability assay (CellTiter-Glo), MGC-803. To be noted: TAT control. As to the method: as §1, §2, §3, §4, §5, §6, §7
A further assay relates to A549 cells (control). Briefly: Cell viability assay (CellTiter-Glo), normal A549 (control). To be noted: TAT control. As for the experimental part: as §1, §2

“And” between values parts separate entries of the source, which are not always exact repeats. Equal entries are not always repeated. Starred links: 1 amine or outer side, 2 acyl side, 3 side chain; linkers in the order of their positions; H or OH if unused. Positions of bridges follow the written chain, without caps; N, C: chain ends. Residues, ends and D or L forms follow the SMILES beside them. X1 = O=C(C[*:2])NCCNC(=O)c1ccc(C2=N[C@H](C(=O)[*:1])CS2)cc1

For the compound `C[C@@H]1NC(=O)[C@@H]2CCCN2C(=O)[C@@H]2CSC(=N2)c2ccc(cc2)C(=O)NCCNC(=O)CSC[C@@H](C(=O)NCC(=O)N[C@@H](CO)C(=O)NCC(=O)N[C@@H](CO)C(=O)N[C@@H](CCCNC(=N)N)C(=O)N[C@@H](CCCCN)C(=O)N[C@@H](CCCCN)C(=O)N[C@@H](CCCNC(=N)N)C(=O)N[C@@H](CCCNC(=N)N)C(=O)N[C@@H](CCC(N)=O)C(=O)N[C@@H](CCCNC(=N)N)C(=O)N[C@@H](CCCNC(=N)N)C(=O)N[C@@H](CCCNC(=N)N)C(N)=O)NC(=O)[C@H](CCC(=O)O)NC(=O)[C@H](Cc2ccc(O)cc2)NC(=O)[C@H](CC(=O)O)NC(=O)[C@H](Cc2c[nH]c3ccccc23)NC(=O)CNC(=O)[C@H](Cc2ccc(O)cc2)NC(=O)[C@H](CCCNC(=N)N)NC1=O` [cp1-TAT] (PARYGWDYECGSGSRKKRRQRRR-NH2; linker N-10 via X1; C-terminus assumed), the raw luminescence reading is 483100 and 539500 and 548500 and 508300 and 527200 and 488600 in the assay with RS4:11 cells (0.0488281 uM); 528800 and 591800 and 582200 and 559700 and 554700 and 529500 in the assay on RS4:11 cells (0.0976562 uM); 524900 and 538800 and 551800 and 528900 and 518500 and 499500 with RS4:11 cells (0.195312 uM); 511700 and 533900 and 533200 and 520400 and 504300 and 479000 in the assay on RS4:11 cells (0.390625 uM); 535400 and 544100 and 562800 and 550400 and 519400 and 494800 with RS4:11 cells (0.78125 uM); 520400 and 578500 and 612400 and 550500 and 491200 and 506800 in the assay with RS4:11 cells (1.5625 uM). Also, the raw luminescence reading in the assay on RS4:11 cells (3.125 uM) is 414000 and 466800 and 497600 and 501300 and 428800 and 513500; in the assay with RS4:11 cells (6.25 uM), 401900 and 468400 and 486300 and 500900 and 419400 and 497100; in the assay on RS4:11 cells (12.5 uM) it was 380500 and 444100 and 470000 and 488300 and 390700 and 473300; in the assay with RS4:11 cells (25 uM), 309300 and 375600 and 407800 and 416800 and 350200 and 401000; in the assay with RS4:11 cells (50 uM), 222600 and 265500 and 282300 and 297300 and 246800 and 283000; with RS4:11 cells (100 uM), 63070 and 74540 and 82840 and 89800 and 66010 and 86930. Also, the inhibition rate with RS4:11 cells (0.195312 uM, 0.195312 µM) was 0.825% and -1.8% and -4.26% and 0.0693% and 2% and 5.62%; in the assay on RS4:11 cells (12.5 uM, 12.5 µM) it was 11%; with RS4:11 cells (25 uM, 25 µM), 42% and 29% and 23% and 21% and 34% and 24%; with RS4:11 cells (50 uM, 50 µM), 58% and 50% and 47% and 44% and 53%; with RS4:11 cells (100 uM, 100 µM), 88% and 86% and 84% and 83%. Further, the “Q1(%)” value in the assay on Jurkat cells [1] is 67.4% and 59.1% and 60.9%. Moreover, the “Q1(%)/Q3(%)” value in the assay with Jurkat cells [1] is 5.861 and 3.177 and 3.421. Also, the “Q3(%)” value with Jurkat cells [1] was 11.5% and 18.6% and 17.8%. Besides, the “ΔΨm (ratio of red over green fluorescence, Q1/Q3)” value in the assay with Jurkat cells [1] (Jurkat) is reported as 4.15. In addition, in the assay with Jurkat cells [1] (Jurkat, 24 h treatment (Supplementary Fig. 13)), the “Relative ΔΨm by JC-1 fluorescence staining (microscopy)” value is on record as “slightly decreased”. In addition, in the assay with Jurkat cells [2] (Figure 6b, replicate values), the “cell apoptosis(%)” value is 66.77% and 60.2%. The “Proportion of apoptotic cells” value in the assay with Jurkat cells [2] (Jurkat, 24 h, 30 μM) is recorded as 66.77%.
For the compound TAT (GSGSRKKRRQRRR), the “average (raw viability reading)” value with PANC-1 cells is recorded as 639133; in the assay on MGC-803 cells, 627500; with A549 cells (control) (A549) it was 422183. Besides, the inhibition rate with PANC-1 cells (fraction, replicates) is 0.2393 and 0.182 and 0.1596 and 0.1507 and 0.1102 and 0.1321; in the assay on MGC-803 cells (fraction, replicates), 0.09219 and 0.04796 and 0.06436 and 0.05774 and 0.0275 and 0.04676; with A549 cells (control) (A549, fraction, replicates), 0.1678 and 0.2197 and 0.2282 and 0.2003 and 0.1961 and 0.2135. Besides, the raw viability reading is 580400 and 624100 and 641200 and 648000 and 678900 and 662200 in the assay with PANC-1 cells (replicates); 622000 and 626400 and 646500 and 633700 and 603500 and 632900 with MGC-803 cells (replicates); 409500 and 424300 and 426500 and 417300 and 441500 and 414000 in the assay on A549 cells (control) (A549, replicates). The “luminescence reading (raw, replicate wells)” value in assay [3] is 540600 and 529300 and 534000 and 526600 and 523000 and 507100; in assay [4] it was 525300 and 568300 and 525100 and 556600 and 515500 and 559500; with A549 cells (control) (control A549) it was 640800 and 544000 and 632800 and 539700 and 559000 and 590400. The “luminescence reading, everage” value in assay [3] (mean of 6 wells) was 526767; in assay [4] (mean of 6 wells), 541717; in the assay on A549 cells (control) (control A549, mean of 6 wells) it was 584450. In addition, in the assay with Jurkat cells [1], the “Q1(%)” value is 92.3% and 93.6% and 94.9%. The “Q1(%)/Q3(%)” value in the assay with Jurkat cells [1] is 22.1343 and 27.3684 and 32.6117. For the same compound, in the assay with Jurkat cells [1], the “Q3(%)” value is 4.17% and 3.42% and 2.91%. In the assay on Jurkat cells [1] (Jurkat), the “ΔΨm (ratio of red over green fluorescence, Q1/Q3)” value was found to be 27.37.
